# Measurements published in the supplement of paper PMC10307832.
# Experiments:
# Experiment in all cases: relative viability (nuclei count vs DMSO), 5 days (fraction); higher = more cells survive
# Cediranib + Navitoclax = compound: COc1cc2c(Oc3ccc4[nH]c(C)cc4c3F)ncnc2cc1OCCCN1CCCC1 [Cediranib] + CC1(C)CCC(c2ccc(Cl)cc2)=C(CN2CCN(c3ccc(C(=O)NS(=O)(=O)c4ccc(N[C@H](CCN5CCOCC5)CSc5ccccc5)c(S(=O)(=O)C(F)(F)F)c4)cc3)CC2)C1 [Navitoclax] (partner 0.5 µM)
# How it was run: (§1)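 Relative viability is defined as nuclei in treated wells over nuclei in vehicle wells. Duplicate plates were run and medians reported. Lung cancer cell lines in 1536-well plates were dosed by pin tool one day after seeding, with one drug or with a fixed anchor-drug dose plus five library-drug doses (not always all listed) in √10 steps, and nuclei were counted after 5 days.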
# Cediranib + Tozasertib = compound: COc1cc2c(Oc3ccc4[nH]c(C)cc4c3F)ncnc2cc1OCCCN1CCCC1 [Cediranib] + Cc1cc(Nc2cc(N3CCN(C)CC3)nc(Sc3ccc(NC(=O)C4CC4)cc3)n2)n[nH]1 [Tozasertib] (partner 0.1 µM)
# How it was run: as §1
# Decitabine + OSI-027 = compound: Nc1ncn([C@H]2C[C@H](O)[C@@H](CO)O2)c(=O)n1 [Decitabine] + COc1cccc2cc(-c3nc([C@H]4CC[C@H](C(=O)O)CC4)n4ncnc(N)c34)[nH]c12 [OSI-027] (partner 0.5 µM)
# How it was run: as §1
# Halofuginone + AZD7762 = compound: O=C(C[C@H]1NCCC[C@@H]1O)Cn1cnc2cc(Br)c(Cl)cc2c1=O (racemic) [Halofuginone] + NC(=O)Nc1cc(-c2cccc(F)c2)sc1C(=O)N[C@H]1CCCNC1 [AZD7762] (partner 0.2 µM)
# How it was run: as §1
Cell Line,relative viability (Cediranib + Navitoclax; first compound 0.04 µM),relative viability (Cediranib + Navitoclax; first compound 0.1265 µM),relative viability (Cediranib + Navitoclax; first compound 0.4 µM),relative viability (Cediranib + Navitoclax; first compound 1.265 µM),relative viability (Cediranib + Navitoclax; first compound 4 µM),relative viability (Cediranib + Tozasertib; first compound 0.04 µM),relative viability (Cediranib + Tozasertib; first compound 0.1265 µM),relative viability (Cediranib + Tozasertib; first compound 0.4 µM),relative viability (Cediranib + Tozasertib; first compound 1.265 µM),relative viability (Cediranib + Tozasertib; first compound 4 µM),relative viability (Decitabine + OSI-027; first compound 0.04 µM),relative viability (Decitabine + OSI-027; first compound 0.1265 µM),relative viability (Decitabine + OSI-027; first compound 0.4 µM),relative viability (Decitabine + OSI-027; first compound 1.265 µM),relative viability (Decitabine + OSI-027; first compound 4 µM),relative viability (Halofuginone + AZD7762; first compound 0.001 µM),relative viability (Halofuginone + AZD7762; first compound 0.003162 µM),relative viability (Halofuginone + AZD7762; first compound 0.01 µM),relative viability (Halofuginone + AZD7762; first compound 0.03162 µM),relative viability (Halofuginone + AZD7762; first compound 0.1 µM)
201T,1.25,1.28,1.15,1.2,1.21,1.1,1.19,0.875,0.966,0.889,0.72,0.681,0.62,0.464,0.403,0.634,0.634,0.589,0.711,0.8
A-427,0.903,–,0.909,0.875,0.94,0.208,–,0.198,0.237,0.217,0.266,0.324,0.26,0.213,0.246,0.729,0.806,0.805,0.77,0.497
BEN,0.0686,0.0663,0.0683,0.0702,0.0649,0.446,–,0.554,–,0.627,0.297,0.315,0.273,0.295,0.289,0.851,0.685,0.844,0.654,0.418
CAL-12T,1.33,1.33,1.37,1.27,1.34,0.333,0.333,0.29,0.397,0.293,0.558,0.612,–,0.305,0.268,0.642,0.688,0.584,0.695,0.695
ChaGo-K-1,1.02,–,0.952,1.23,0.83,0.214,0.263,0.236,0.202,0.209,0.493,0.483,0.299,0.32,0.41,0.869,0.839,0.854,0.874,0.885
EKVX,1.01,0.74,0.912,0.903,1.02,0.349,0.502,0.366,0.436,0.473,0.494,0.516,0.461,0.303,0.297,0.721,0.615,0.692,0.784,0.496
EMC-BAC-2,1.3,1.16,1.12,1.17,1.06,0.284,0.238,0.278,0.286,0.3,0.39,0.4,0.286,0.344,0.363,1.17,1.2,1.06,1.12,0.842
EPLC-272H,1.35,–,1.05,1.15,1.27,0.267,–,0.31,–,0.297,–,0.288,0.11,0.248,0.186,0.208,0.0783,0.216,0.215,0.19
H3255,0.673,0.429,0.447,0.453,0.376,0.578,–,0.599,0.654,0.43,–,0.478,0.435,0.5,0.535,1.05,0.777,0.871,0.844,0.876
HARA,1.16,1.03,1.15,1.14,1.18,0.125,–,0.107,0.118,0.123,0.251,0.257,0.164,0.112,0.111,0.279,0.506,0.391,0.305,0.304
HCC-15,0.742,–,0.693,0.678,0.767,0.507,–,0.391,0.36,0.358,0.688,0.722,0.328,0.445,0.327,1.19,1.26,1,1.18,1.2
HCC-44,0.972,–,1.01,0.965,1.11,–,–,0.893,1.05,0.831,–,0.739,0.232,0.364,0.49,1.06,1.01,1.02,1.03,1.05
HCC-78,0.934,0.824,0.764,0.762,0.758,0.448,0.474,0.512,0.54,0.441,0.344,0.365,0.345,0.353,0.344,0.657,0.672,0.55,0.652,0.643
HCC-366,1.07,0.983,1.11,1.07,1.07,0.114,0.0898,0.125,0.136,0.147,0.859,0.915,0.485,0.253,0.176,0.282,0.321,0.323,0.336,0.317
HCC-827,1.02,–,1.02,1.04,1.1,0.529,–,0.407,0.414,0.351,0.129,0.37,0.311,0.202,0.27,0.242,0.183,0.217,0.2,0.253
HOP-62,1.08,0.892,0.867,1.1,1.14,0.366,0.457,0.388,0.379,0.352,0.613,0.601,0.272,0.23,0.167,0.573,0.676,0.47,0.599,0.327
LC-2-ad,0.504,0.502,0.469,0.419,0.513,0.496,0.373,0.456,0.507,0.371,0.738,0.705,0.663,0.457,0.479,0.841,0.878,0.831,0.885,0.576
LCLC-97TM1,0.316,–,0.448,0.544,0.527,0.217,0.224,0.191,0.227,0.229,0.244,0.295,0.188,0.229,0.11,0.33,0.18,0.211,0.22,0.237
LK-2,1,0.848,0.768,0.828,0.861,0.195,0.156,0.175,0.194,0.162,0.188,0.2,0.191,0.252,0.212,0.583,0.432,0.487,0.491,0.281
LOU-NH91,0.673,0.635,0.665,0.706,0.544,0.473,0.67,0.646,0.708,0.658,0.497,0.738,0.621,0.629,0.672,0.793,0.735,0.767,0.691,0.664
LU99A,0.787,–,0.813,0.698,0.969,0.292,0.285,0.285,0.286,0.292,0.307,0.291,0.319,0.255,0.293,0.323,0.347,0.384,0.327,0.346
LXF-289,0.97,0.878,0.948,0.926,0.957,0.231,0.219,0.212,0.212,0.2,0.646,0.617,0.361,0.31,0.23,1.08,1.17,1.02,1.12,1.01
NCI-H23,0.974,–,0.615,0.702,0.794,0.43,–,0.365,0.399,0.395,0.48,0.498,0.255,0.231,0.245,0.32,0.184,0.223,0.233,0.246
NCI-H322M,1.22,1.21,1.08,1.21,1.14,0.484,0.564,0.473,0.424,0.486,0.507,0.496,0.432,0.473,0.441,0.517,0.708,0.526,0.614,0.426
NCI-H441,0.466,0.63,–,0.763,0.573,0.787,–,0.545,0.55,0.677,0.415,0.441,0.246,0.261,0.255,1.13,1.35,1.18,1.3,0.599
NCI-H1703,1.11,0.916,0.287,0.237,0.238,–,–,–,–,–,–,–,–,–,–,0.119,0.121,0.121,0.13,0.151
NCI-H1792,0.446,0.442,0.588,0.668,0.393,–,–,–,–,–,0.74,0.727,0.712,0.539,0.505,0.684,0.722,0.585,0.541,0.234
NCI-H2342,–,–,–,–,–,0.54,0.575,0.568,0.536,0.484,0.544,0.583,0.565,0.595,0.599,0.458,0.536,0.507,0.487,0.588
SW 900,–,–,–,–,–,0.605,0.507,0.584,0.48,0.571,0.321,0.349,0.191,0.183,0.175,0.677,0.564,–,0.621,0.46
